The assay has as its system AML12. Nature of the assay: Activation of Nrf2 in LPS-stimulated mouse AML12 cells assessed as fold increase in HO-1 gene expression at 10 uM incubated for 16 hrs. Format: cell-based. The following applies: filed as activator.

`COc1ccc(-c2cc(=O)c3ccc(NS(=O)(=O)c4ccc(F)c(Br)c4)cc3o2)cc1`: the fold change (FC) came to 4.2.

For `COc1ccc(-c2cc(=O)c3ccc(N(CC(N)=O)S(=O)(=O)c4ccc(OC)cc4)cc3o2)cc1`, the fold change (FC) is 2.3.

In the case of `COc1ccc(-c2cc(=O)c3ccc(NS(=O)(=O)c4ccccc4OC)cc3o2)cc1`, the fold change (FC) was 3.3.

On to `COc1ccc(-c2cc(=O)c3ccc(NS(=O)(=O)c4ccc(F)c(Cl)c4)cc3o2)cc1`, for which the fold change (FC) worked out at 4.

For the molecule `O=c1c(O)c(-c2ccc(O)c(O)c2)oc2cc(O)cc(O)c12`, the fold change (FC) worked out at 1.4.

For the molecule `O=C1C[C@@H](c2ccc(O)cc2)Oc2cc(O)ccc21`, the fold change (FC) came out at 2.

Consider `COc1ccc(-c2cc(=O)c3ccc(NS(=O)(=O)c4cccs4)cc3o2)cc1`, for which the fold change (FC) is 3.4.

Regarding `COc1ccc(-c2cc(=O)c3ccc(NS(=O)(=O)c4ccc([N+](=O)[O-])cc4)cc3o2)cc1`, the fold change (FC) was 3.3.

Regarding `O=c1cc(-c2ccc(O)cc2)oc2cc(O)cc(O)c12`, the fold change (FC) is 1.8.

On to `COc1ccc(-c2cc(=O)c3ccc(NS(=O)(=O)c4ccc(C(C)C)cc4)cc3o2)cc1`, for which the fold change (FC) worked out at 3.4.

`COc1ccc(-c2cc(=O)c3ccc(NS(=O)(=O)c4ccc(OC(F)(F)F)cc4)cc3o2)cc1`: the fold change (FC) stood at 7.

For the molecule `COC(=O)CN(c1ccc2c(=O)cc(-c3ccc(OC)cc3)oc2c1)S(=O)(=O)c1ccc(F)cc1`, the fold change (FC) is 4.8.

Turning to `COc1ccc(-c2cc(=O)c3ccc(NS(=O)(=O)c4cccnc4)cc3o2)cc1`, the fold change (FC) turned out to be 5.3.

`O=C1c2c(O)cc(O)cc2O[C@H](c2cc(O)c(O)c(O)c2)[C@H]1O`: the fold change (FC) was determined as 1.4.

Consider `COc1ccc(-c2cc(=O)c3ccc(NS(=O)(=O)c4ccc(C)cc4)cc3o2)cc1`, for which the fold change (FC) was determined as 3.1.

For the molecule `COc1ccc(-c2cc(=O)c3ccc(NS(=O)(=O)c4ccc(C(F)(F)F)cc4)cc3o2)cc1`, the fold change (FC) was found to be 4.8.

On to `COC(=O)CN(c1ccc2c(=O)cc(-c3ccc(OC)cc3)oc2c1)S(=O)(=O)c1ccc(OC)cc1`, for which the fold change (FC) was found to be 3.5.

On to `COc1ccc(-c2cc(=O)c3ccc(NS(=O)(=O)c4ccc(OC)cc4OC)cc3o2)cc1`, for which the fold change (FC) is 4.

For `COc1ccc(-c2cc(=O)c3ccc(NS(=O)(=O)c4ccc(OC)cc4)cc3o2)cc1`, the fold change (FC) stood at 4.6.

Take `COc1ccc(-c2cc(=O)c3ccc(NS(=O)(=O)c4cccc(OC(F)(F)F)c4)cc3o2)cc1`: the fold change (FC) was determined as 4.2.

Take `COC(=O)CN(c1ccc2c(=O)cc(-c3ccc(OC)cc3)oc2c1)S(=O)(=O)c1ccc(C(F)(F)F)cc1`: the fold change (FC) was 2.6.

Consider `CCc1ccc(S(=O)(=O)Nc2ccc3c(=O)cc(-c4ccc(OC)cc4)oc3c2)cc1`, for which the fold change (FC) is 5.

Consider `COc1ccc(-c2cc(=O)c3ccc(NS(=O)(=O)c4ccc(C)cc4C)cc3o2)cc1`, for which the fold change (FC) amounted to 3.

Take `COc1ccc(-c2cc(=O)c3ccc(NS(=O)(=O)c4ccccc4OC(F)(F)F)cc3o2)cc1`: the fold change (FC) worked out at 3.9.

`COc1ccc(-c2cc(=O)c3ccc(NS(=O)(=O)c4ccc(F)cc4Cl)cc3o2)cc1`: the fold change (FC) came out at 3.6.

Consider `CCCCOc1ccc(S(=O)(=O)Nc2ccc3c(=O)cc(-c4ccc(OC)cc4)oc3c2)cc1`, for which the fold change (FC) stood at 2.3.

Regarding `C[S+]([O-])CCCCN=C=S` (configuration not stated), the fold change (FC) came out at 5.8.

With `COc1ccc(-c2cc(=O)c3ccc(NS(=O)(=O)c4c(C)c(C)cc(C)c4C)cc3o2)cc1`, the fold change (FC) was found to be 2.8.

For the molecule `COc1ccc(-c2cc(=O)c3ccc(NS(=O)(=O)c4ccc(F)cc4Br)cc3o2)cc1`, the fold change (FC) is 3.2.

As for `COc1ccc(-c2cc(=O)c3ccc(NS(=O)(=O)c4cccc(F)c4)cc3o2)cc1`, the fold change (FC) worked out at 4.5.

`COc1ccc(-c2cc(=O)c3ccc(NS(=O)(=O)c4cccc(OC)c4)cc3o2)cc1`: the fold change (FC) turned out to be 3.7.

Take `COc1ccc(-c2cc(=O)c3ccc(NS(=O)(=O)c4ccccc4F)cc3o2)cc1`: the fold change (FC) worked out at 3.4.

Values taken from ChEMBL document CHEMBL6182905, “Fluorinated sulfonamide-flavonoid derivatives as novel Keap1-Nrf2 inhibitors: Potent induction of cytoprotective gene HO-1 in vivo” (Eur J Med Chem, 2025).
